Source: US20260285853A1, “COMPOUNDS AND METHODS FOR MODULATING SPLICING” (REMIX THERAPEUTICS INC., priority 2023, published 2026)
pIC50: −log10 of the molar value. Read-outs that look alike come from different tables or passages of the source.

Tests used:
Format in all cases: cell-based
[1] = test system: HTT mRNA; experiment: Gene panel canonical junction qPCR assay, decrease in CJ mRNA, Table 3
Outline: (§1)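 Cells: A673 or K562; 24 h compound exposure, 37 °C, 5% CO2; 11-pt 3-fold series from 10 uM final; DMSO ≤0.25%. Lysate → cDNA → qPCR with junction-spanning primers/probe for CJ transcript. ΔCt vs housekeeper, ΔΔCt vs DMSO, 2^(−ΔΔCt), % response, 4PL → IC50.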

[2] = test system: MYB mRNA; experiment: as above
Outline: as §1

[3] = test system: HTT mRNA; experiment: Splicing RT-qPCR assay (THP), Table 2A
[4] = test system: MYB mRNA; experiment: Splicing RT-qPCR assay (THP), Table 2A
[5] = test system: SH-SY5Y (human neuroblastoma) cells; experiment: Cell viability, Cell Titer Glo 2.0 assay; conditions: read-out: Viability SHSY5Y.3 GI50
Outline: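 CellTiter-Glo 2.0 luminescence read-out after 72 h compound exposure (37 °C, 5% CO2); medium-only wells as blank. DMSO 0.1% final.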

[6] = decrease in canonical junction (CJ) mRNA, gene panel qPCR, Table 3
[7] = Table 2A (THP), AJ mRNA increase, read-out: HTT AJ (increase in alternative junction mRNA, AC50)
[8] = Table 2A (THP), CJ mRNA decrease, read-out: HTT CJ (decrease in canonical junction mRNA, IC50)
[9] = Table 2A (THP), AJ mRNA increase, read-out: MYB AJ (increase in alternative junction mRNA, AC50)
[10] = Table 2A (THP), CJ mRNA decrease, read-out: MYB CJ (decrease in canonical junction mRNA, IC50)
[11] = decrease in CJ mRNA levels, canonical junction qPCR, gene panel
[12] = Table 2A, THP, HTT alternative junction (AJ) mRNA, read-out: HTT AJ (AC50, increase in alternative junction mRNA)
[13] = Table 2A, THP, HTT canonical junction (CJ) mRNA, read-out: HTT CJ (IC50, decrease in canonical junction mRNA)
[14] = Table 2A, THP, MYB alternative junction (AJ) mRNA, read-out: MYB AJ (AC50, increase in alternative junction mRNA)
[15] = Table 2A, THP, MYB canonical junction (CJ) mRNA, read-out: MYB CJ (IC50, decrease in canonical junction mRNA)

| Structure (SMILES) | pIC50 [1, 6] | pIC50 [2, 6] | pIC50 [3, 8] | pIC50 [4, 10] | GI50 [5] | pIC50 [1, 11] | pIC50 [2, 11] | pIC50 [3, 13] | pIC50 [4, 15] | AC50 [3, 7] | AC50 [4, 9] | AC50 [3, 12] | AC50 [4, 14] |
| --- | --- | --- | --- | --- | --- | --- | --- | --- | --- | --- | --- | --- | --- |
| COc1nc2c(C(=O)Nc3cc(F)c4nn(C)cc4c3)ccc(N3C[C@@H](C)NC4(CC4)C3)c2s1 [Compound 788] |  |  |  |  | 1 to 10 µM | < 5.00 | 6.00 to 7.00 | < 5.00 | 6.00 to 7.00 |  |  | > 10 µM | < 0.1 µM |
| COc1nc2c(N3C[C@H](C)N[C@@H](C)C3)ccc(C(=O)Nc3cc(F)c4nn(C)cc4c3)c2o1 [Compound 691, 4-[(3S,5S)-3,5-dimethylpiperazin-1-yl]-N-(7-fluoro-2-methyl-indazol-5-yl)-2-methoxy-1,3-benzoxazole-7-carboxamide] |  |  |  |  | 1 to 10 µM | < 5.00 | 6.00 to 7.00 | < 5.00 | 6.00 to 7.00 |  |  | > 10 µM | 0.1 to 1 µM |
| C[C@H]1CN(c2ccc(C(=O)Nc3cc(F)c4nn(C)cc4c3)c3nc(OCCO)sc23)C[C@H](C)N1 [Compound 712, 7-[(3S,5S)-3,5-dimethylpiperazin-1-yl]-N-(7-fluoro-2-methyl-indazol-5-yl)-2-(2-hydroxyethoxy)-1,3-benzothiazole-4-carboxamide] |  |  |  |  | < 0.1 µM | > 7.00 | > 7.00 | > 7.00 | > 7.00 |  |  | < 0.1 µM | < 0.1 µM |
| COc1nc2c(C(=O)Nc3cc(F)c4nn(C)nc4c3)ccc(N3C[C@H](C)N[C@@H](C)C3)c2s1 [Compound 756, 7-[(3S,5S)-3,5-dimethylpiperazin-1-yl]-N-(7-fluoro-2-methyl-benzotriazol-5-yl)-2-methoxy-1,3-benzothiazole-4-carboxamide] |  |  |  |  | < 0.1 µM | 6.00 to 7.00 | > 7.00 | 6.00 to 7.00 | > 7.00 |  |  | 0.1 to 1 µM | < 0.1 µM |
| COc1nc2c(C(=O)Nc3cc(F)c4nc(C)nn4c3)ccc(N3C[C@H](C)N[C@@H](C)C3)c2s1 [Compound 763, 7-[(3S,5S)-3,5-dimethylpiperazin-1-yl]-N-(8-fluoro-2-methyl-[1,2,4]triazolo[1,5-a]pyridin-6-yl)-2-methoxy-1,3-benzothiazole-4-carboxamide] |  |  |  |  | < 0.1 µM | 5.00 to 6.00 | > 7.00 | 5.00 to 6.00 | > 7.00 |  |  | 0.1 to 1 µM | < 0.1 µM |
| COc1nc2c(C(=O)Nc3cc(F)c4nn(C)cc4c3)ccc(N3CC4CCC(C3)N4)c2s1 [Compound 801, 7-(3,8-diazabicyclo[3.2.1]octan-3-yl)-N-(7-fluoro-2-methyl-indazol-5-yl)-2-methoxy-1,3-benzothiazole-4-carboxamide] |  |  |  |  | 0.1 to 1 µM | 5.00 to 6.00 | > 7.00 | 5.00 to 6.00 | > 7.00 |  |  | 1 to 10 µM | < 0.1 µM |
| COc1nc2c(C(=O)Nc3ccc4c(c3)CCCO4)ccc(N3C[C@H](C)N[C@@H](C)C3)c2s1 [Compound 760] |  |  |  |  | 1 to 10 µM | < 5.00 | < 5.00 | < 5.00 | < 5.00 |  |  | > 10 µM | > 10 µM |
| Cc1cn2cc(NC(=O)c3ccc(N4CC(N5CCNCC5)C4)c4cn(C)nc34)nc2c(C)n1 [Compound 500] | < 5.00 | < 5.00 | < 5.00 | < 5.00 | > 10 µM |  |  |  |  | > 10 µM | > 10 µM |  |  |

The next lines start with results.

| pIC50 [1, 6] | pIC50 [2, 6] | pIC50 [3, 8] | pIC50 [4, 10] | GI50 [5] | pIC50 [1, 11] | pIC50 [2, 11] | pIC50 [3, 13] | pIC50 [4, 15] | Structure (SMILES) | AC50 [3, 7] | AC50 [4, 9] | AC50 [3, 12] | AC50 [4, 14] |
| --- | --- | --- | --- | --- | --- | --- | --- | --- | --- | --- | --- | --- | --- |
| < 5.00 | < 5.00 | < 5.00 | < 5.00 | 1 to 10 µM |  |  |  |  | COc1cnncc1NC(=O)c1c(F)cc(N2CCC(NC3CC3)CC2)c2cn(C)nc12 [Compound 421, 4-[4-(cyclopropylamino)-1-piperidyl]-6-fluoro-N-(5-methoxypyridazin-4-yl)-2-methyl-indazole-7-carbox-amide] | > 10 µM | > 10 µM |  |  |
|  |  |  |  | 0.1 to 1 µM | 6.00 to 7.00 | > 7.00 | 6.00 to 7.00 | > 7.00 | Cc1cn2cc(NC(=O)c3ccc(N4CCC(NC5CC5)CC4)c4cc(CO)nn34)cc(F)c2n1 [Compound 622] |  |  | 0.1 to 1 µM | 0.1 to 1 µM |
| < 5.00 | < 5.00 | < 5.00 | < 5.00 | > 10 µM |  |  |  |  | Cc1nc(CNS(C)(=O)=O)cn2cc(NC(=O)c3c(F)cc(N4CCC(NC5CC5)CC4)c4cn(C)nc34)nc12 [Compound 416, 4-(4-(cyclopropylamino)-piper-idin-1-yl)-6-fluoro-2-meth-yl-N-(8-methyl-6-(methyl-sulfonamidomethyl)-imidazo[1,2-a]pyrazin-2-yl)-2H-indazole-7-carbox-amide 2,2,2-trifluoroacetate] | > 10 µM | > 10 µM |  |  |
| < 5.00 | 6.00 to 7.00 | < 5.00 | 6.00 to 7.00 | > 10 µM |  |  |  |  | Cc1cn2cc(NC(=O)c3ccc(N4CCC5(CCN5)CC4)c4cn(C)nc34)nc2c(C)n1 [Compound 563, 4-(1,7-diazaspiro[3.5]nonan-7-yl)-N-(6,8-dimethyl-imidazo[1,2-a]pyrazin-2-yl)-2-methyl-indazole-7-carboxamide] | > 10 µM | 0.1 to 1 µM |  |  |
| < 5.00 | 5.00 to 6.00 | < 5.00 | 5.00 to 6.00 | 1 to 10 µM |  |  |  |  | CC1OB(O)c2cc(NC(=O)c3c(F)cc(N4CCC(NC5CC5)CC4)c4cn(C)nc34)ccc21 (centres unmarked) [Compound 490, 4-(4-(cyclopropylamino)piperidin-1-yl)-6-fluoro-N-(1-hydroxy-3-methyl-1,3-dihydrobenzo[c]-[1,2]oxaborol-6-yl)-2-methyl-2H-indazole-7-carboxamide 2,2,2-trifluoroacetate] | > 10 µM | > 10 µM |  |  |
| 5.00 to 6.00 | 5.00 to 6.00 | 5.00 to 6.00 | 5.00 to 6.00 | 1 to 10 µM |  |  |  |  | CCNC1CCN(c2cc(F)c(C(=O)Nc3cn4ccncc4n3)c3nn(C)cc23)CC1 [Compound 381, 4-[4-(ethylamino)-1-piper-idyl]-6-fluoro-N-imidazo [1,2-a]-pyrazin-2-yl-2-methyl-indazole-7-carboxamide] | 1 to 10 µM | 1 to 10 µM |  |  |
| < 5.00 | < 5.00 | < 5.00 | < 5.00 | > 10 µM |  |  |  |  | CCNC1CCN(c2ccc(C(=O)Nc3cc(C(N)=O)c4nc(C)cn4c3)c3nn(C)cc23)CC1 [Compound 317, N-(8-carbamoyl-2-methylimidazo[1,2-a]pyridin-6-yl)-4-(4-(ethylamino)piperidin-1-yl)-2-methyl-2H-indazole-7-carboxamide 2,2,2-trifluoroacetate] | > 10 µM | > 10 µM |  |  |
|  |  |  |  | 1 to 10 µM | < 5.00 | 5.00 to 6.00 | < 5.00 | 5.00 to 6.00 | Cn1cc2cc(NC(=O)c3ccc(N4CCC(NC5CC5)CC4)c4cn(C)nc34)cc(Cn3nccn3)c2n1 [Compound 824] |  |  | > 10 µM | 1 to 10 µM |
|  |  |  |  | < 0.1 µM | > 7.00 | > 7.00 | > 7.00 | > 7.00 | COc1cc2c(N3CCC(NC4CC4)CC3)ccc(C(=O)Nc3cn4cc(C)nc4c(F)c3OC)n2n1 [Compound 688, 4-[4-(cyclopropylamino)-1-piperidyl]-N-(8-fluoro-7-methoxy-2-methyl-imidazo[1,2-a]pyridin-6-yl)-2-methoxy-pyrazolo[1,5-a]pyridine-7-carboxamide] |  |  | 0.1 to 1 µM | < 0.1 µM |
|  |  |  |  | > 10 µM | < 5.00 | < 5.00 | < 5.00 | < 5.00 | CNCC1CN(c2ccc(C(=O)Nc3cn4cc(C)nc(CNS(C)(=O)=O)c4n3)c3nn(C)cc23)C1 [Compound 863] |  |  | > 10 µM | > 10 µM |
|  |  |  |  | > 10 µM | < 5.00 | 6.00 to 7.00 | < 5.00 | 6.00 to 7.00 | COc1cc2c(N3CCC(NC4CC4)CC3)ccc(C(=O)Nc3cn4cc(C)nc(C)c4n3)n2n1 [Compound 633, 4-[4-(cyclopropyl-amino)-1-piperidyl]-N-(6,8-dimethyl-imidazo[1,2-a]pyrazin-2-yl)-2-methoxypyrazolo [1,5-a]-pyridine-7-carboxamide] |  |  | > 10 µM | 0.1 to 1 µM |
|  |  |  |  | 1 to 10 µM | < 5.00 | 6.00 to 7.00 | < 5.00 | 6.00 to 7.00 | C=CCNC1CCN(c2ccc(C(=O)Nc3cc(CNS(C)(=O)=O)c4nc(C)cn4c3)c3nn(C)cc23)CC1 [Compound 836, 4-[4-(allylamino)-1-piperidyl]-N-[8-(methanesulfonamidomethyl)-2-methyl-imidazo[1,2-a]pyridin-6-yl]-2-methyl-indazole-7-carboxamide] |  |  | > 10 µM | 0.1 to 1 µM |
